# Laboratory results reported in patent US20240268379A1, “BIODEGRADABLE PVA/PVP HYDROGELS, USES AND PREPARATION THEREOF” (Bar-Ilan University, priority 2021, published 2024).
# Assay: Thermal stability of thymol by TGA-MS
# Type: physicochemical
# Conditions: 20° C./min, nitrogen
# Experimental: Thermal gravimetric analysis (TGA) was carried out using SETSYS, by Setaram. The released products during the measurements were obtained by using Hiden HPR-20 QIC mass spectrometer (TGA) coupled with mass spectroscopy (MS). The analysis was conducted to study the stability effect of the PVA/PVP hydrogel, under heat treatment, on thymol, entrapped in the hydrogel, relative to thymol pure form. The tested samples were heated from 30° C. up to 630° C. (20° C./min heat rate) under nitrogen inert atmosphere (20 ml/min nitrogen flow rate).
smiles,measurement,value
"Cc1ccc(C(C)C)c(O)c1 [pure thymol, thymol]",thymol loss end temperature,130 °C
same,thymol loss start temperature,70 °C
